The values that follow are results of earlier work, collected in US4650854A, “Amide analogs of calcitonin” (USV Pharmaceutical Corporation, priority 1985, dated 1987).

For the data set the following is noted: Monikawa et al., Experientia 32(9), 1104-1106 (1976).

Where no end group is shown, it is not given here.

Turning to “(1,7-α-L-aminosuberic acid)eel calcitonin”, the hypocalcemic potency entry is “about 3400 Iu/mg”.
As to “eel calcitonin (CSNLSTCVLGKLSQELHKLQTYPRTDVGAGTP; ends and bridges not checked; cysteine pairing not given here; UniProt P01262 1-32, looked up) [synthetic eel calcitonin, synthetic eel calcitonin, natural 32 amino acid calcitonin peptide]”, the hypocalcemic potency entry is “around 4300 Iu/mg”.
